From the supplement of paper PMC11451515

Assays:
Details in all cases: 48 h
SEM cells [1] = test: cell viability relative to DMSO control; higher = less cytotoxic
In short: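 Cells were incubated for 48 h at 37°C before CellTiter-Glo One luminescence was read. The cells were NOMO1 or SEM (500 cells/well) or P12-Ichikawa (1000 cells/well) leukemia cells, adapted for at least four passages in each medium and seeded in 1536-well plates (5 μl). Dosing used library compounds in DMSO applied by pin over 11 threefold points, 47 μM to 0.79 nM. Viability is the per-plate percentage of DMSO wells, with cell-free wells as background.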

NOMO1 = test: AUC of viability dose-response curve (% viability x log10 dose units); higher = less sensitive
In short: (§1)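 Area under the curve was integrated by trapezoidal rule from a log-logistic fit of normalised viability, with curves exceeding full viability scaled and quality-control failures removed. The fit had four parameters over log10 doses. Viability came from CellTiter-Glo One luminescence, normalised per plate to DMSO and cell-free wells, after leukemia cells adapted to each medium (500 or 1000 cells/well, 1536-well plates) were exposed to library compounds in DMSO for 48 h at 37°C. The 11 threefold doses ran from 47 μM to 0.79 nM.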

P12-Ichikawa = test: as above
In short: as §1

SEM cells [2] = test: as above
In short: as §1

CC(C)C[C@H](NC(=O)CNC(=O)c1cc(Cl)ccc1Cl)B1OC(=O)CC(CC(=O)O)(C(=O)O)O1 (stereo partly specified)
cell viability [%], SEM cells [1]
Details | HPLM + 10% dialyzed FBS | RPMI 5 mM glucose + 10% FBS
0.000781 µM | 101 | 120
0.00234 µM | 120 | 132
0.00702 µM | 125 | 124
0.0211 µM | 145 | 125
0.0632 µM | 128 | 99.9
0.19 µM | 16 | 13.3
0.569 µM | 8.29 | 8.91
1.71 µM | 7.41 | 8.18
5.12 µM | 5.78 | 6.61
15.4 µM | 4.49 | 4.78
46.1 µM | 4.53 | 4.54

AUC of viability dose-response curve
Details | NOMO1 | P12-Ichikawa | SEM cells [2]
HPLM + 10% dialyzed FBS | 276 | 270 | 231
RPMI 5 mM glucose + 10% FBS | 278 | 269 | 221
RPMI 5 mM glucose + 10% dialyzed FBS | 280 | 269 | 235
